The values below come from article PMC9030254, “Target Hopping from Protein Kinases to PXR: Identification of Small-Molecule Protein Kinase Inhibitors as Selective Modulators of Pregnane X Receptor from TüKIC Library” (Cells, 2022).

For orientation: inhibition means the share of the control response that was lost under treatment. Read a low inhibition as little suppression.

What all share (assay): Kinase profiling
What all share (type): biochemical

For one experiment, the target named is T1, PKCalpha (Homo sapiens, UniProt P17252).
T1 construct: purchased ProQinase (Freiburg, Germany)
On the procedure:
(§1) The analysis was performed by ProQinase (Freiburg, Germany).

A further experiment addresses T2, PDGFRalpha (Homo sapiens, UniProt P16234).
T2 construct: purchased ProQinase (Freiburg, Germany)
On the procedure:
as §1

The target of another experiment is T3, YES (Homo sapiens, UniProt P07947).
T3 construct: purchased ProQinase (Freiburg, Germany)
T3 sequence (P07947 whole entry): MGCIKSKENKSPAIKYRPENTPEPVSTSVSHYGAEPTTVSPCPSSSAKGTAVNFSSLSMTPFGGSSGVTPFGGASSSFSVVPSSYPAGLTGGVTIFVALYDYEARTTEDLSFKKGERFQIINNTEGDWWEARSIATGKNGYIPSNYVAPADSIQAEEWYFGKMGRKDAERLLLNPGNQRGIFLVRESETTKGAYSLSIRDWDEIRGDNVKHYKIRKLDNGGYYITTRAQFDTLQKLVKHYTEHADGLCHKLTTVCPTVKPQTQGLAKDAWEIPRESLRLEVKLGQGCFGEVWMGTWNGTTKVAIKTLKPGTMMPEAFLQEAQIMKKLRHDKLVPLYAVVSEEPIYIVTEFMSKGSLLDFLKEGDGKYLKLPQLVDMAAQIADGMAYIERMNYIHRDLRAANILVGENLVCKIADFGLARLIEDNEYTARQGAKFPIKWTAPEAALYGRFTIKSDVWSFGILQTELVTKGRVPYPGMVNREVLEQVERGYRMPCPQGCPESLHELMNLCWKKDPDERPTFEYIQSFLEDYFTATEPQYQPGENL
On the procedure:
as §1

Another experiment addresses T4, SIK1 (Homo sapiens, UniProt P57059).
T4 construct: purchased ProQinase (Freiburg, Germany)
On the procedure: as §1

A further experiment addresses T5, FGR (Homo sapiens, UniProt P09769).
T5 construct: purchased ProQinase (Freiburg, Germany)
As to the method: as §1

In a further experiment the target is T6, CDK4/CycD2 (Homo sapiens, UniProt P11802).
T6 construct: purchased ProQinase (Freiburg, Germany)
T6 sequence (P11802 whole entry): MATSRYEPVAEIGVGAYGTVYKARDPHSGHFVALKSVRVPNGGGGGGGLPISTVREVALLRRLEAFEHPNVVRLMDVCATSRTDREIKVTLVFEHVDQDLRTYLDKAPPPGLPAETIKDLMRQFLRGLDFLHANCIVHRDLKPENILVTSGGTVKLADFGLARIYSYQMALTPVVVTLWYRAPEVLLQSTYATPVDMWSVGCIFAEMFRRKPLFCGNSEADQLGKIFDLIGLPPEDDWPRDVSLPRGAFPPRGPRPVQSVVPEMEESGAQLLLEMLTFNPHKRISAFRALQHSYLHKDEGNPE
T6 sequence (P30279 whole entry partner): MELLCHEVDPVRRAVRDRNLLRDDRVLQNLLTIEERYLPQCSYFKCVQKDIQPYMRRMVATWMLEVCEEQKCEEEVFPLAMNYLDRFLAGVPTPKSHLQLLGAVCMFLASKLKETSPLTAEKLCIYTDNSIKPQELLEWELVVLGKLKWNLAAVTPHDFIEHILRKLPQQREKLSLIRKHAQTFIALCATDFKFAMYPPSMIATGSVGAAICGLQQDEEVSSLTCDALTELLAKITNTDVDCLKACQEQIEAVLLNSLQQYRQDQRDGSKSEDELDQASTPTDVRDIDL
On the procedure:
as §1

The next experiment concerns the target T7, HIPK3 (Homo sapiens, UniProt Q9H422).
T7 construct: purchased ProQinase (Freiburg, Germany)
On the procedure: as §1

A further experiment has as its target T8, ASK1 (Homo sapiens, UniProt Q99683).
T8 construct: purchased ProQinase (Freiburg, Germany)
T8 sequence (Q99683 1-1374): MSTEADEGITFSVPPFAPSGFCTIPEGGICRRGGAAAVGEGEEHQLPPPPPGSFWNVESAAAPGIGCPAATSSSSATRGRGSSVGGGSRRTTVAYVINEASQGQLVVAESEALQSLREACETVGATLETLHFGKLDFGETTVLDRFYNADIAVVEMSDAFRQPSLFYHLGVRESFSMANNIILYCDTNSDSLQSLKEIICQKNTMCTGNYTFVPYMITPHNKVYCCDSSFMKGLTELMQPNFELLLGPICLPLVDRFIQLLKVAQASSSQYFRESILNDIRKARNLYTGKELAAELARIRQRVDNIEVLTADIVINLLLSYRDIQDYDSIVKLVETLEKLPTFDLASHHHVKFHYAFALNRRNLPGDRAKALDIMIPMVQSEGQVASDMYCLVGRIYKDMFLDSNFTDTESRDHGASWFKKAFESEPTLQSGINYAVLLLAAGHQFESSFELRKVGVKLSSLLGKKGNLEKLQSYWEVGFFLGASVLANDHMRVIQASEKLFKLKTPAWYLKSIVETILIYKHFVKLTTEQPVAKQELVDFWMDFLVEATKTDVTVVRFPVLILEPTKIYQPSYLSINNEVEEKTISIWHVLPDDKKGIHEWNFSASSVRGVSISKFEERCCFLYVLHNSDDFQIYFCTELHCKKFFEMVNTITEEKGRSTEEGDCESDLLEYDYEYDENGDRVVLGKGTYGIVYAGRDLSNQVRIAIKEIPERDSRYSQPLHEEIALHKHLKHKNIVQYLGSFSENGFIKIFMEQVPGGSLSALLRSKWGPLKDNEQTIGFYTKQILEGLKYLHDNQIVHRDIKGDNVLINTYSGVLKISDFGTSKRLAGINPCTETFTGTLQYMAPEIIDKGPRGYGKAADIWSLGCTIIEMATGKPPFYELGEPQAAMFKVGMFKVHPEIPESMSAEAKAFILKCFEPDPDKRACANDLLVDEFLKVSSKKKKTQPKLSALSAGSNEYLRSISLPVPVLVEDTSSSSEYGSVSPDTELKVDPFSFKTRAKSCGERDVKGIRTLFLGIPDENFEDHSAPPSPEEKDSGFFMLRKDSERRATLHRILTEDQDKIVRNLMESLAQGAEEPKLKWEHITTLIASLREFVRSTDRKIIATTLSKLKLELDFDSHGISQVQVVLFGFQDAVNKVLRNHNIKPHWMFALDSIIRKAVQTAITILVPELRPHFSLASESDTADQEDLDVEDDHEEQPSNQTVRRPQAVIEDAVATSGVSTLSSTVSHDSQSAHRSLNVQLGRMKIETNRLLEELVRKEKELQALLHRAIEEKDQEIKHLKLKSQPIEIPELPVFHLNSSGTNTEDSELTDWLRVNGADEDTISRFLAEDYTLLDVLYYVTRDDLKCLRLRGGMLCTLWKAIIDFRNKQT
On the procedure: as §1

The next experiment deals with T9, PKA (Homo sapiens, UniProt P17612).
T9 construct: purchased ProQinase (Freiburg, Germany)
As to the method:
as §1

The next experiment deals with T10, PKMzeta (Homo sapiens, UniProt Q05513).
T10 construct: PKMzeta; purchased ProQinase (Freiburg, Germany)
T10 sequence (Q05513 184-592 limits assumed): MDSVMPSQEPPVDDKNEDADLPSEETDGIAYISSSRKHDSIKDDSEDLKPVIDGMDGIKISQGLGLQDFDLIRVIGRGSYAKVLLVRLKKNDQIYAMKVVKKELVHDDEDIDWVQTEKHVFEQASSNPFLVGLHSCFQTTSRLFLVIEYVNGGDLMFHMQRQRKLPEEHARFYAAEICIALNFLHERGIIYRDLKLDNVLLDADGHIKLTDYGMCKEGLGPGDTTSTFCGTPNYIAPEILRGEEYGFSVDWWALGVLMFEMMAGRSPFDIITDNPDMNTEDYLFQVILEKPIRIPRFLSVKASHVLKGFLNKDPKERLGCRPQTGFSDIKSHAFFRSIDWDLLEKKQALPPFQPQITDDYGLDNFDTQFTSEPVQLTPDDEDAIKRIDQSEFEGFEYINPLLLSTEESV
On the procedure:
as §1

The next experiment deals with T11, PKCdelta (Homo sapiens, UniProt Q05655).
T11 construct: purchased ProQinase (Freiburg, Germany)
T11 sequence (Q05655 whole entry): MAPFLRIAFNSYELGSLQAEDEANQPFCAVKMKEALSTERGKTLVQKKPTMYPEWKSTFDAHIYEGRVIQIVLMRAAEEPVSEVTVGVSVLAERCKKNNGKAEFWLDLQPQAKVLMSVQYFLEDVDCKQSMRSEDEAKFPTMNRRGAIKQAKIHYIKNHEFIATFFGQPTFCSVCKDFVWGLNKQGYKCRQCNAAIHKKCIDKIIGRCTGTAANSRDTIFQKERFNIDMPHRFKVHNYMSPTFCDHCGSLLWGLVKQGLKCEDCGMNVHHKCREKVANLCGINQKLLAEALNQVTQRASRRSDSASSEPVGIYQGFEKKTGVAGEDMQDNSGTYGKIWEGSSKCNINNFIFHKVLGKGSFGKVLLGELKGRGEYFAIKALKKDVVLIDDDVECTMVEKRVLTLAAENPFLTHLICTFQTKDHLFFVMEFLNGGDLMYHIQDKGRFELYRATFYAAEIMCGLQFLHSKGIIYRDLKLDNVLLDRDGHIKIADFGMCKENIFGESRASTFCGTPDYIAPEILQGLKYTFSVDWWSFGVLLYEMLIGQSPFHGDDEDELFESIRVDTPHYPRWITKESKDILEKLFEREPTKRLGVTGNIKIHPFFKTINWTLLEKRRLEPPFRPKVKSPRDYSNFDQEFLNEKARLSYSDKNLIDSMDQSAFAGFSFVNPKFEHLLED
On the procedure: as §1

T5 sequence (P09769 whole entry): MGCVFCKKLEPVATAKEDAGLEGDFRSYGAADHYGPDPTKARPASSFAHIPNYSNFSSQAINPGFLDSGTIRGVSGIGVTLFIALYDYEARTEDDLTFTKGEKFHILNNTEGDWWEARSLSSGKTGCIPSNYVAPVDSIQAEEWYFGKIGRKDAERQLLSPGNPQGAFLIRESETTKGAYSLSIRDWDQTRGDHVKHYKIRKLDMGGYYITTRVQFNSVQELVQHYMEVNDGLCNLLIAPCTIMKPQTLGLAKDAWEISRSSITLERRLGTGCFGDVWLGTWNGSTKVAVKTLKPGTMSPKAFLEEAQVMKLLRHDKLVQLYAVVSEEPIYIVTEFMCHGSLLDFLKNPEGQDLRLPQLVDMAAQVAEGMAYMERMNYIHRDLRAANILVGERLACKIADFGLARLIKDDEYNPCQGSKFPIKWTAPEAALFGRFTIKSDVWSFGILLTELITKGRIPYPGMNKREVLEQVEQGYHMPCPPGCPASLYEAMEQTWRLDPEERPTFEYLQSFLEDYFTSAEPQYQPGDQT
T2 sequence (P16234 24-1089): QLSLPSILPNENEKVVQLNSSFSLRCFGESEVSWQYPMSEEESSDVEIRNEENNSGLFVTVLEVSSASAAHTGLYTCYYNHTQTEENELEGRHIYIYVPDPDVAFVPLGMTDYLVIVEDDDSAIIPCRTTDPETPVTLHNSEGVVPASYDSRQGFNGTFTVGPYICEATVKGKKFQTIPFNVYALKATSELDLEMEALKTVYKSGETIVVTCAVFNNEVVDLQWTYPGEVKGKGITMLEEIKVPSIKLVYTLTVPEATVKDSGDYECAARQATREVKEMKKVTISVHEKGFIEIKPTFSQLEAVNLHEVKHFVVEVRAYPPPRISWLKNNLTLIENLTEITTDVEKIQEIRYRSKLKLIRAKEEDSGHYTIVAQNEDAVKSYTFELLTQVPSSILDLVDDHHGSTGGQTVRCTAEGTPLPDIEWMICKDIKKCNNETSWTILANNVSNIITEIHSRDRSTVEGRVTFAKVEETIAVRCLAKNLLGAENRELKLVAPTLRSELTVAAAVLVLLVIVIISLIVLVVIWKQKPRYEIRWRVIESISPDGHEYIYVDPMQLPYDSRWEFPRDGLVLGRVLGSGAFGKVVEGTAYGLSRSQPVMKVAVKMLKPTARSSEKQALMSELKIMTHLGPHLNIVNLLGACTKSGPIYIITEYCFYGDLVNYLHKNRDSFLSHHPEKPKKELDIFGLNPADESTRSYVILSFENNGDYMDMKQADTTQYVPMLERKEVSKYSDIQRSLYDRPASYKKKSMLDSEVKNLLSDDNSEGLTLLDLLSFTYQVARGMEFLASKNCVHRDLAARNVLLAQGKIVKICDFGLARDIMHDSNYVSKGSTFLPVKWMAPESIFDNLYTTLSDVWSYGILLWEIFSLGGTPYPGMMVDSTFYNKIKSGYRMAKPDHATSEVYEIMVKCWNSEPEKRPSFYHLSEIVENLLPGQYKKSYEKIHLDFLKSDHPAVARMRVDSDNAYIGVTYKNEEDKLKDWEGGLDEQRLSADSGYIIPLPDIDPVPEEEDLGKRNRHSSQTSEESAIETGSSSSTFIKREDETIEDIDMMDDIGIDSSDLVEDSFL
T4 sequence (P57059 whole entry): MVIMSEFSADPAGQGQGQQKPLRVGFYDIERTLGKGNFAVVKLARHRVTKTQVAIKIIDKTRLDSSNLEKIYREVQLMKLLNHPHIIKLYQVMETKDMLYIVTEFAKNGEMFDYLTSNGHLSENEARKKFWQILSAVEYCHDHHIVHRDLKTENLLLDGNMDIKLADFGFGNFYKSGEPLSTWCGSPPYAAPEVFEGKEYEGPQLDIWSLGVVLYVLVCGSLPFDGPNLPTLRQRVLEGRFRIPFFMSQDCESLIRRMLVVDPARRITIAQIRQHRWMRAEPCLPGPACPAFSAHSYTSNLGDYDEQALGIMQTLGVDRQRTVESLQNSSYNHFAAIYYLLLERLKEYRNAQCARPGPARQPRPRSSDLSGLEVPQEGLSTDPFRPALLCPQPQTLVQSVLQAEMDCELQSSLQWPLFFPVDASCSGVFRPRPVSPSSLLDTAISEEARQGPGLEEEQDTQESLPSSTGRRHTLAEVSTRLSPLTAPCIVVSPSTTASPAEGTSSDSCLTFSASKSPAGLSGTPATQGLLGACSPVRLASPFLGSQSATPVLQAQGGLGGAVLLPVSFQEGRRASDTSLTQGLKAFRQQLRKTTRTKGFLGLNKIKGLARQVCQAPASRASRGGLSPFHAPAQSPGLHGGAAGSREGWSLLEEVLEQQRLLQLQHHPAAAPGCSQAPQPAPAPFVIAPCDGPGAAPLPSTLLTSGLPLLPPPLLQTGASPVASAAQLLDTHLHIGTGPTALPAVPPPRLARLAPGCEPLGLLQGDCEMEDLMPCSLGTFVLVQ

As to `O=C(Nc1ccc(F)c(Nc2ccc3c(c2)CCCCC3=O)c1)c1cccc(F)c1` [Compound 109], the Residual activity is 73 % of control on PKCalpha (1.0E-05 M); 92 % of control on PKCalpha (1.0E-06 M); 92 % of control on PDGFRalpha (1.0E-05 M); 96 % of control on PDGFRalpha (1.0E-06 M); 77 % of control at YES (1.0E-05 M); 98 % of control at YES (1.0E-06 M). The Residual activity at SIK1 (1.0E-05 M) is given as 83 % of control; at SIK1 (1.0E-06 M), 89 % of control; at FGR (1.0E-05 M), 84 % of control; at FGR (1.0E-06 M) it was 105 % of control; on CDK4/CycD2 (1.0E-05 M), 91 % of control; at CDK4/CycD2 (1.0E-06 M) it was 94 % of control. Moreover, the Residual activity is on record as 90 % of control on HIPK3 (1.0E-05 M); 89 % of control on HIPK3 (1.0E-06 M); 88 % of control on ASK1 (1.0E-05 M); 87 % of control at ASK1 (1.0E-06 M); 49 % of control at PKA (1.0E-05 M); 86 % of control on PKA (1.0E-06 M). The Residual activity is recorded as 88 % of control on PKMzeta (1.0E-05 M), 103 % of control at PKMzeta (1.0E-06 M), 66 % of control at PKCdelta (1.0E-05 M) and 107 % of control at PKCdelta (1.0E-06 M). For the same compound, the inhibition at 10 µM at PKA is not below 50%.

For the compound `O=C(Cc1ccccc1)Nc1ccc(F)c(Nc2ccc3c(c2)CCCCC3=O)c1` [Compound 100], the Residual activity at PKCalpha (1.0E-05 M) is listed as 82 % of control; on PKCalpha (1.0E-06 M), 95 % of control; on PDGFRalpha (1.0E-05 M), 95 % of control; on PDGFRalpha (1.0E-06 M) it was 107 % of control; at YES (1.0E-05 M) it was 70 % of control; at YES (1.0E-06 M), 87 % of control. The Residual activity is 86 % of control on SIK1 (1.0E-05 M); 84 % of control on SIK1 (1.0E-06 M); 82 % of control at FGR (1.0E-05 M); 108 % of control at FGR (1.0E-06 M); 86 % of control at CDK4/CycD2 (1.0E-05 M); 94 % of control at CDK4/CycD2 (1.0E-06 M). Besides, the Residual activity at HIPK3 (1.0E-05 M) is 87 % of control; at HIPK3 (1.0E-06 M) it was 88 % of control; on ASK1 (1.0E-05 M), 85 % of control; on ASK1 (1.0E-06 M), 87 % of control; on PKA (1.0E-05 M), 21 % of control; at PKA (1.0E-06 M), 97 % of control. The Residual activity at PKMzeta (1.0E-05 M) is 98 % of control; at PKMzeta (1.0E-06 M), 105 % of control; at PKCdelta (1.0E-05 M), 82 % of control; at PKCdelta (1.0E-06 M) it was 98 % of control. Besides, the inhibition at 10 µM against PKA was not below 50%.
